Experimental data as given in paper PMC10238102, “Anti-SARS-CoV-2 Activity of Adamantanes In Vitro and in Animal Models of Infection” (COVID, 2022).
Entries after “also recorded” stand apart in the source; their conditions may differ. Like-named read-outs stand apart in the source and are kept apart here.

Columns and labels:
[1] = CellTiter-Glo cell viability assay in ACE2-A549 cells; conditions: human
[2] = Cell viability (CC50) in Vero E6-TMPRSS2-T2A-ACE2 cells; type: cell-based; conditions: African green monkey, Vero E6 T/A cells, Figure 3
SARS-CoV-2 WA/01 [3] = assay: SARS-CoV-2 WA/01 immunostaining assay in ACE2-A549 cells; type: cell-based; conditions: MOI 0.1, anti-spike staining, 3 DPI (Figure 2A)
icSARS-CoV-2-mNG [4] = assay: microbe, parasite or virus in culture; type: cell-based, SARS-CoV-2
SARS-CoV-2 [5] = assay: Summary of in vitro assays in human lung epithelial cells expressing ACE2; type: cell-based; conditions: Severe acute respiratory syndrome coronavirus 2, Epithelial cell, read-out: IC50 values (summary range)
icSARS-CoV-2-mNG [6] = assay: microbe, parasite or virus in culture; type: cell-based, SARS-CoV-2; conditions: Severe acute respiratory syndrome coronavirus 2, read-out: IC50 (virus titer by plaque assay)
[7] = tested on: Influenza A/Hong Kong/8/68 (H3N2); assay: microbe, parasite or virus in culture; type: cell-based
SARS-CoV-2 WA/01 [8] = assay: Golden Syrian hamster infection model, lung virus titer by plaque assay; type: in vivo, golden Syrian hamsters; conditions: 60 mg/kg i.p. every 12 h from 24 h before infection, 4 DPI
Procedure: The golden Syrian hamster experiment was performed by Dr. Anthony Griffith’s team at the Boston University School of Medicine. Adult hamsters (3 males and 3 females per group) were administered with antiviral compounds i.p. starting 24 h prior to infection until completion of the study. Hamsters were infected with SARS-CoV-2 WA/01 i.n. (4 × 10^4 PFU in 100 μL). At 4 DPI, hamsters underwent euthanasia and their lungs were collected to perform plaque assays to measure virus titer in the tissues. Lung tissue from each hamster was stored at −80 °C prior to titer. Tissues were removed from −80 °C and thawed at 4 °C before being weighed and cut to a weight ≤100 mg. Each tissue sample was then homogenized using a TissueLyser II (Qiagen, Germantown, MD, USA) in a final volume of 1 mL using DMEM/2% FBS/antibiotic-antimycotic (Gibco™). Each tissue homogenate was then diluted and 200 μL of each dilution or control was added to confluent monolayers of Vero E6 cells in duplicate and incubated for 1 h at 37 °C and 5% CO2. The plates were gently rocked every 5–10 min to prevent monolayer drying. […]

SARS-CoV-2 protein E = tested on: SARS-CoV-2 protein E; set-up: method as in PMID 34893762; conditions: expressed in X. laevis oocytes; cited from earlier work
in vitro = conditions: human
SARS-CoV-2 WA/01 [9] = assay: SARS-CoV-2 WA/01 antiviral assay in Vero E6 cells; type: cell-based; conditions: Severe acute respiratory syndrome coronavirus 2, Vero C1008, strain WA/01
[10] = cited from earlier work
[11] = Body weight and deaths of treated, infected BALB/c mice; conditions: 60 mg/kg i.n. every 12 h, n = 6 mice per group
SARS-CoV-2 [12] = conditions: obtained by Zhou et al.; cited from earlier work
[13] = cited from earlier work; remark: listed apart in the source
ACE2-A549 cells [14] = assay: CellTiter-Glo cell viability assay in ACE2-A549 cells
SARS-CoV-2 ORF10 = tested on: SARS-CoV-2 ORF10; set-up: method as in PMID 34893762; conditions: expressed in X. laevis oocytes; cited from earlier work
ACE2-A549 cells [15] = conditions: human
[16] = Severe acute respiratory syndrome coronavirus 2, ACE2-A549 cells
[17] = Severe acute respiratory syndrome coronavirus 2

| SMILES | CC50 at 48 h [2] [µM] | IC50 (SARS-CoV-2 WA/01 [3]; [16]) [µM] | IC50 (icSARS-CoV-2-mNG [4]; [17]) [µM] | IC50 (SARS-CoV-2 [5]) [µM] | IC50 (icSARS-CoV-2-mNG [6]) [µM] | IC50 [7] [µM] | lung virus titer vs no-drug control (SARS-CoV-2 WA/01 [8]) | channel activity of protein E (SARS-CoV-2 protein E) | CC50 (in vitro) [µM] | IC50 (SARS-CoV-2 WA/01 [9]) [µM] | IC50 (SARS-CoV-2 [12]) [µM] | IC50 (icSARS-CoV-2-mNG [4]) [µM] | channel activity of ORF10 (SARS-CoV-2 ORF10) | also measured |
| --- | --- | --- | --- | --- | --- | --- | --- | --- | --- | --- | --- | --- | --- | --- |
| CCC(CC)COC(=O)[C@H](C)N[P@](=O)(OC[C@H]1O[C@@](C#N)(c2ccc3c(N)ncnn23)[C@H](O)[C@@H]1O)Oc1ccccc1 [remdesivir] | ≥ 10 | 0.04 | 0.08 |  |  |  |  |  |  |  |  |  |  | CC50 [1]: ≥ 3 µM |
| CC(N)C12CC3CC(CC(C3)C1)C2 (centres unmarked) [rimantadine] | ≥ 300 | 34 | 30 | 30 to 40 | 12.6 | 0.05 | modestly but significantly inhibited; also recorded: mild but significant antiviral effect | not reported to be inhibited | ≥ 300 | 121 | 36 | 29.8 |  | Cmax ([10]; in vivo, 100 mg): 0.54 to 2.17 µM; mice found dead within 1 DPI [11]: Two; Cmax ([13]; mouse, in vivo, po, 40 mg/kg): 9.3 µM |
| O=c1nc(NO)ccn1[C@@H]1O[C@H](CO)[C@@H](O)[C@H]1O [EIDD-1931] |  |  |  |  |  |  |  |  |  |  |  |  |  | CC50 (ACE2-A549 cells [14]; Figure 1A): 130 µM; CC50 (ACE2-A549 cells [14]; Figure 2A): 100 µM; IC50 (SARS-CoV-2 WA/01 [3]; ACE2-A549 cells, read-out: IC50): 0.36 µM; IC50 (icSARS-CoV-2-mNG [4]; read-out: IC50): 1.5 µM |
| NC(N)=NC(=O)c1nc(Cl)c(N2CCCCCC2)nc1N [hexamethylene-amiloride] |  |  |  |  |  |  |  | decreased channel activities |  |  |  |  | decreased channel activities |  |
| CN(C)CCOCC(=O)NC12CC3CC(CC(C3)C1)C2 [tromantadine] |  | 56 | 98 | 60 to 100 | 88.9 | 94.2 |  |  | 312 |  |  | 97.6 |  | CC50 (ACE2-A549 cells [15]): 305 µM |
| NC12CC3CC(CC(C3)C1)C2 [amantadine] | ≥ 1000 | 136 | 120 | 120 to 130 | 34.6 | 0.46 | did not significantly inhibit | decreased channel activities | ≥ 1000 | 413 | 116 | 120 | decreased channel activities | ratio of nasal mucus to plasma concentration, compared with rimantadine ([10]; after single 200-mg doses): about two-fold higher; concentration in autopsy lung tissue relative to serum concentration ([10]; autopsy lung tissue from an infant): 14 times; Cmax ([10]; multiple dose, 258 mg extended-release tablet once daily): 4.16 µM; Cmax ([13]; read-out: Cmax plasma level, mice, single-dose i.p. injection of 60 mg/kg): 47 µM |
